Experimental data taken from publication PMC6934184, “Selective DNA-PKcs inhibition extends the therapeutic index of localized radiotherapy and chemotherapy” (The Journal of Clinical Investigation, 2019).

Biological target: T1, MET D1228H (Homo sapiens, UniProt P08581, D1228H)
T1 construct: purchased Thermo Fisher Scientific (Life Technologies) SelectScreen
Experiment: SelectScreen LanthaScreen
Format: binding
Conditions: 1 µM
Summary of the method: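 Percent values come from Thermo SelectScreen profiling of NU5455, combining activity and binding assays. CSF1R was run in Z'LYTE format at Km app ATP, and CAMK1 in Adapta format with ATP listed at 10.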

T1 sequence (P08581 25-1390 D1228H): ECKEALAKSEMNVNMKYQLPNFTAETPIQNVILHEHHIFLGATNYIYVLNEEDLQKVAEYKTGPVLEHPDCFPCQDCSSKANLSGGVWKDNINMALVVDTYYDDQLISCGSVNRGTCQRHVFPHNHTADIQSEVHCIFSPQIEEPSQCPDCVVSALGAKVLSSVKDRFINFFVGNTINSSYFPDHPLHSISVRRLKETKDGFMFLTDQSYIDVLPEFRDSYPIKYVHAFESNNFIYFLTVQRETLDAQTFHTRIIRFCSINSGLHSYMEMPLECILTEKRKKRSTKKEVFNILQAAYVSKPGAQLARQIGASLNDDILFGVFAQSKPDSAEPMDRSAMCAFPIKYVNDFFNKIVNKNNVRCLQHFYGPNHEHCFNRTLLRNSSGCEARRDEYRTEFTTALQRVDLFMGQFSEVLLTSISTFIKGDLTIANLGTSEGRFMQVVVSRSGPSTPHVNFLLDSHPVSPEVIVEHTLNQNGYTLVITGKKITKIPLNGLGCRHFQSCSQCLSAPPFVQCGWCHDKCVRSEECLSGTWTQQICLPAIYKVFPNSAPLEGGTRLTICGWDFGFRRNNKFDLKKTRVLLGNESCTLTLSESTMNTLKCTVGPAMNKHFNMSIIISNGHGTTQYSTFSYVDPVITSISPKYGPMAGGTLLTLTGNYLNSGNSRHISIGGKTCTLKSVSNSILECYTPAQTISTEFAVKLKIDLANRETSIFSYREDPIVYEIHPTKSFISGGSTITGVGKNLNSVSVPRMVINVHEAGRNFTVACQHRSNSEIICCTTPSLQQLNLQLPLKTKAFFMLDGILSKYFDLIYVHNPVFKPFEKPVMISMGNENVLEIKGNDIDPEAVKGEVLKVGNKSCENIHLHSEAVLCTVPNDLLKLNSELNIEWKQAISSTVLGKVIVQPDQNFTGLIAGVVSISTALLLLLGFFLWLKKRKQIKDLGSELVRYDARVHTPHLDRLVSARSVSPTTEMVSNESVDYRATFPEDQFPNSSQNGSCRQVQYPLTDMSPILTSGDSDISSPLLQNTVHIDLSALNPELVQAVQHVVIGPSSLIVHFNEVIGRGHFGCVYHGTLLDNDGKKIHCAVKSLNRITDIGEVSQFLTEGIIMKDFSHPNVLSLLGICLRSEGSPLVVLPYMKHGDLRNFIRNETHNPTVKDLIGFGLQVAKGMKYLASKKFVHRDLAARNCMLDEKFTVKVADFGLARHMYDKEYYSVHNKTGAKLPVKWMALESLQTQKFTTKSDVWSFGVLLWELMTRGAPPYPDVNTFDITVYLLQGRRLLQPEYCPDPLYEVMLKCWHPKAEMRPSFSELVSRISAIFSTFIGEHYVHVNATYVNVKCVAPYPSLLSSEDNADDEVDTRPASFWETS

CN(C(=O)CN1CCOCC1)c1ccc2sc3c(-c4cccc5c(=O)cc(N6CC7CCC(C6)O7)oc45)cccc3c2c1 [NU5455]
% displacement: -1.5%
